Test results taken from publication PMC5218480 (PLoS ONE, 2017).

System: MV-4-11 cells
Experiment: Gene expression microarray analysis (Affymetrix PrimeView) and GSEA
Format: cell-based, human
Parameters: RFU PODN (11730768_x_at) / Fold change /veh PODN (11730768_x_at) / RFU LINC00158 (11744669_a_at) / Fold change /veh LINC00158 (11744669_a_at) / RFU DUSP10 (11751237_a_at) / Fold change /veh DUSP10 (11751237_a_at) / RFU ID3 (11757404_x_at) / Fold change /veh ID3 (11757404_x_at) / RFU PLEKHG5 (11737974_s_at) / Fold change /veh PLEKHG5 (11737974_s_at) / RFU LRRC4B (11730491_at) / Fold change /veh LRRC4B (11730491_at) / RFU GIMAP4 (11747438_a_at) / Fold change /veh GIMAP4 (11747438_a_at) / RFU KRT8 (11758183_x_at) / Fold change /veh KRT8 (11758183_x_at) / RFU CNN1 (11734310_a_at) / Fold change /veh CNN1 (11734310_a_at) / RFU VPS37D (11726825_at) / Fold change /veh VPS37D (11726825_at) / RFU C10orf10 (11716522_x_at) / Fold change /veh C10orf10 (11716522_x_at) / RFU KIR2DL2 /// KIR2DL4 /// KIR2DL5A /// KIR2DL5B /// KIR2DS1 /// KIR2DS2 /// KIR2DS3 /// KIR2DS4 /// KIR3DL3 /// KIR3DL3 /// KIR3DS1 (11738374_at) / Fold change /veh KIR2DL2 /// KIR2DL4 /// KIR2DL5A /// KIR2DL5B /// KIR2DS1 /// KIR2DS2 /// KIR2DS3 /// KIR2DS4 /// KIR3DL3 /// KIR3DL3 /// KIR3DS1 (11738374_at) / RFU C1QL1 (11718748_at) / Fold change /veh C1QL1 (11718748_at) / RFU TMPRSS4 (11747572_a_at) / Fold change /veh TMPRSS4 (11747572_a_at) / RFU HAMP (11756126_x_at) / Fold change /veh HAMP (11756126_x_at) / RFU RNFT2 (11725882_a_at) / Fold change /veh RNFT2 (11725882_a_at) / RFU NR4A2 (11747474_a_at) / Fold change /veh NR4A2 (11747474_a_at) / RFU ABCC12 (11746883_a_at) / Fold change /veh ABCC12 (11746883_a_at) / RFU TMEM136 (11760407_x_at) / Fold change /veh TMEM136 (11760407_x_at) / RFU CLDN22 /// WWC2 (11732394_at) / Fold change /veh CLDN22 /// WWC2 (11732394_at) / RFU HLA-DPB1 (11760878_x_at) / Fold change /veh HLA-DPB1 (11760878_x_at) / RFU SPINT1 (11716480_a_at) / Fold change /veh SPINT1 (11716480_a_at) / RFU GAP43 (11754022_s_at) / Fold change /veh GAP43 (11754022_s_at) / RFU A4GNT (11735810_at) / Fold change /veh A4GNT (11735810_at) / RFU PRB3 (11715151_x_at) / Fold change /veh PRB3 (11715151_x_at) / RFU TUBB4B (11761932_at) / Fold change /veh TUBB4B (11761932_at) / RFU CAPN14 (11732068_a_at) / Fold change /veh CAPN14 (11732068_a_at) / RFU TMCC2 (11721928_a_at) / Fold change /veh TMCC2 (11721928_a_at) / RFU IRGQ (11745062_a_at) / Fold change /veh IRGQ (11745062_a_at) / RFU FAM174B (11720279_a_at) / Fold change /veh FAM174B (11720279_a_at) / RFU TMPRSS4 (11748680_a_at) / Fold change /veh TMPRSS4 (11748680_a_at) / RFU FAM212B (11763350_a_at) / Fold change /veh FAM212B (11763350_a_at) / RFU PLEKHG5 (11743358_a_at) / Fold change /veh PLEKHG5 (11743358_a_at) / RFU ZSCAN30 (11745921_a_at) / Fold change /veh ZSCAN30 (11745921_a_at) / RFU CMKLR1 (11741424_a_at) / Fold change /veh CMKLR1 (11741424_a_at) / RFU LOC101060620 /// MAPK8IP1 (11723275_at) / Fold change /veh LOC101060620 /// MAPK8IP1 (11723275_at) / RFU SPTSSB (11747773_x_at) / Fold change /veh SPTSSB (11747773_x_at) / RFU PRSS12 (11739890_at) / Fold change /veh PRSS12 (11739890_at) / RFU BIN1 (11741810_x_at) / Fold change /veh BIN1 (11741810_x_at) / RFU WNT11 (11732464_a_at) / Fold change /veh WNT11 (11732464_a_at) / RFU C10orf10 (11716521_a_at) / Fold change /veh C10orf10 (11716521_a_at) / RFU C5orf56 (11738089_at) / Fold change /veh C5orf56 (11738089_at) / RFU CYB561 (11721691_x_at) / Fold change /veh CYB561 (11721691_x_at) / RFU ANKRD19P (11752326_a_at) / Fold change /veh ANKRD19P (11752326_a_at) / RFU OR2T12 /// OR2T33 /// OR2T8 (11738714_s_at) / Fold change /veh OR2T12 /// OR2T33 /// OR2T8 (11738714_s_at) / RFU VCAN (11748164_a_at) / Fold change /veh VCAN (11748164_a_at) / RFU JSRP1 (11732532_at) / Fold change /veh JSRP1 (11732532_at) / RFU KRTAP10-11 (11738290_x_at) / Fold change /veh KRTAP10-11 (11738290_x_at) / RFU MYO3A (11730013_a_at) / Fold change /veh MYO3A (11730013_a_at) / RFU EBF3 (11725865_a_at) / Fold change /veh EBF3 (11725865_a_at) / RFU CAMK2N1 (11719241_x_at) / Fold change /veh CAMK2N1 (11719241_x_at) / RFU C5orf56 (11738088_a_at) / Fold change /veh C5orf56 (11738088_a_at) / RFU OLFML3 (11715873_a_at) / Fold change /veh OLFML3 (11715873_a_at) / RFU LOC100653217 /// NTM (11731650_a_at) / Fold change /veh LOC100653217 /// NTM (11731650_a_at) / RFU MAPK11 (11762145_a_at) / Fold change /veh MAPK11 (11762145_a_at) / RFU FIZ1 (11724087_x_at) / Fold change /veh FIZ1 (11724087_x_at) / RFU OASL (11726364_x_at) / Fold change /veh OASL (11726364_x_at) / RFU SOX15 (11748057_x_at) / Fold change /veh SOX15 (11748057_x_at) / RFU CD79A (11719716_a_at) / Fold change /veh CD79A (11719716_a_at) / RFU HIST1H1D (11736915_at) / Fold change /veh HIST1H1D (11736915_at) / RFU CASKIN2 (11723855_a_at) / Fold change /veh CASKIN2 (11723855_a_at) / RFU LOC730098 (11760151_x_at) / Fold change /veh LOC730098 (11760151_x_at) / RFU OR4N2 (11742367_at) / Fold change /veh OR4N2 (11742367_at) / RFU PRRT2 (11749266_a_at) / Fold change /veh PRRT2 (11749266_a_at) / RFU SNX32 (11753110_a_at) / Fold change /veh SNX32 (11753110_a_at) / RFU CDHR5 (11726645_a_at) / Fold change /veh CDHR5 (11726645_a_at) / RFU RCAN1 (11760418_a_at) / Fold change /veh RCAN1 (11760418_a_at) / RFU FAM167A (11723789_a_at) / Fold change /veh FAM167A (11723789_a_at) / RFU FAM26E (11764081_at) / Fold change /veh FAM26E (11764081_at) / RFU ISYNA1 (11749810_s_at) / Fold change /veh ISYNA1 (11749810_s_at) / RFU ACY1 (11761880_at) / Fold change /veh ACY1 (11761880_at) / RFU 11764098_at / Fold change /veh 11764098_at / RFU SAMD14 (11745864_x_at) / Fold change /veh SAMD14 (11745864_x_at) / RFU NPB (11741838_a_at) / Fold change /veh NPB (11741838_a_at) / RFU TMPRSS6 (11731388_a_at) / Fold change /veh TMPRSS6 (11731388_a_at) / RFU KRTAP10-2 (11738614_at) / Fold change /veh KRTAP10-2 (11738614_at) / RFU ARHGAP8 /// PRR5-ARHGAP8 (11727945_x_at) / Fold change /veh ARHGAP8 /// PRR5-ARHGAP8 (11727945_x_at) / RFU KRTAP5-7 /// NADSYN1 (11734609_at) / Fold change /veh KRTAP5-7 /// NADSYN1 (11734609_at) / RFU RASL12 (11751679_a_at) / Fold change /veh RASL12 (11751679_a_at) / RFU CDKN2B (11736163_a_at) / Fold change /veh CDKN2B (11736163_a_at) / RFU PRF1 (11729649_at) / Fold change /veh PRF1 (11729649_at) / RFU, ZNF638 /// ZNF638-IT1 / Fold change vs veh, ZNF638 /// ZNF638-IT1 / RFU, PANK3 / Fold change vs veh, PANK3 / RFU, SH3YL1 / Fold change vs veh, SH3YL1 / RFU, ZEB2 / Fold change vs veh, ZEB2 / RFU, NRIP1 / Fold change vs veh, NRIP1 / RFU, PTTG1IP / Fold change vs veh, PTTG1IP / RFU, CAPN2 / Fold change vs veh, CAPN2 / RFU, MED14 / Fold change vs veh, MED14 / RFU, SNORA58 / Fold change vs veh, SNORA58 / RFU, C1orf63 / Fold change vs veh, C1orf63 / RFU, LRRFIP1 / Fold change vs veh, LRRFIP1 / RFU, NDUFAF7 / Fold change vs veh, NDUFAF7 / RFU, SLC12A2 / Fold change vs veh, SLC12A2 / RFU, IBTK / Fold change vs veh, IBTK / RFU, ESF1 / Fold change vs veh, ESF1 / Fold change vs veh, TMEM50B / RFU, TAOK1 / Fold change vs veh, TAOK1 / RFU, ACBD3 / Fold change vs veh, ACBD3 / RFU, TMA16 / Fold change vs veh, TMA16 / RFU, RWDD3 / Fold change vs veh, RWDD3 / RFU, BCAT1 / Fold change vs veh, BCAT1 / RFU, EDEM3 / Fold change vs veh, EDEM3 / RFU, TMEM33 / Fold change vs veh, TMEM33 / RFU, WDR75 / Fold change vs veh, WDR75 / RFU, AHCTF1 / Fold change vs veh, AHCTF1 / RFU, TFRC / Fold change vs veh, TFRC / RFU, ZDHHC17 / Fold change vs veh, ZDHHC17 / RFU, NOM1 / Fold change vs veh, NOM1 / RFU, ARL8B / Fold change vs veh, ARL8B / RFU, ZBTB11 / Fold change vs veh, ZBTB11 / RFU, TAMM41 / Fold change vs veh, TAMM41 / RFU, KIAA1704 /// LOC100996395 / Fold change vs veh, KIAA1704 /// LOC100996395 / RFU, ING1 / Fold change vs veh, ING1 / RFU, TRMT61B / Fold change vs veh, TRMT61B / RFU, FUBP3 / Fold change vs veh, FUBP3 / RFU, TP53 / Fold change vs veh, TP53 / RFU, TNKS2 / Fold change vs veh, TNKS2 / RFU, ZFP14 / Fold change vs veh, ZFP14 / RFU, ACTR2 / Fold change vs veh, ACTR2 / RFU, PPP3R1 / Fold change vs veh, PPP3R1 / RFU, PIK3R1 / Fold change vs veh, PIK3R1 / RFU, HNRNPA1 / Fold change vs veh, HNRNPA1 / RFU, RNF170 / Fold change vs veh, RNF170 / RFU, ZNF28 / Fold change vs veh, ZNF28 / RFU, RNGTT / Fold change vs veh, RNGTT / RFU, OGT / Fold change vs veh, OGT / RFU, BRD1 / Fold change vs veh, BRD1 / RFU, MARS / Fold change vs veh, MARS / RFU, ZNF655 / Fold change vs veh, ZNF655 / RFU, FAHD1 / Fold change vs veh, FAHD1 / RFU, BDP1 / Fold change vs veh, BDP1 / RFU, LRRCC1 / Fold change vs veh, LRRCC1 / RFU, ARID1A / Fold change vs veh, ARID1A / RFU, ZNF146 / Fold change vs veh, ZNF146 / RFU, ZNF330 / Fold change vs veh, ZNF330 / RFU, GPN3 / Fold change vs veh, GPN3 / RFU, C9orf123 / Fold change vs veh, C9orf123 / RFU, N4BP2L2 / Fold change vs veh, N4BP2L2 / RFU, ARFIP1 / Fold change vs veh, ARFIP1 / RFU, FAM179B / Fold change vs veh, FAM179B / RFU, BCL10 / Fold change vs veh, BCL10 / RFU, UHRF1BP1L / Fold change vs veh, UHRF1BP1L / RFU, BET1 / Fold change vs veh, BET1 / RFU, CNOT2 / Fold change vs veh, CNOT2 / RFU, ZNF268 / Fold change vs veh, ZNF268 / Fold change vs veh, ZNF507 / RFU, DGCR2 / Fold change vs veh, DGCR2 / RFU, WDSUB1 / Fold change vs veh, WDSUB1 / Fold change vs veh, HSP90B1 /// MIR3652 / RFU, ADSS / Fold change vs veh, ADSS / RFU, GK / Fold change vs veh, GK / RFU, ZNF148 / Fold change vs veh, ZNF148 / RFU, TAF9 / Fold change vs veh, TAF9 / RFU, SLC1A5 / Fold change vs veh, SLC1A5 / RFU, SLMO2 / Fold change vs veh, SLMO2 / RFU, ABCC4 / Fold change vs veh, ABCC4 / RFU, LOC101060439 /// RAP1B / Fold change vs veh, LOC101060439 /// RAP1B / RFU, RFX7 / Fold change vs veh, RFX7 / RFU, GTPBP10 / Fold change vs veh, GTPBP10 / RFU, CNEP1R1 / Fold change vs veh, CNEP1R1 / RFU, BIVM-ERCC5 /// ERCC5 / Fold change vs veh, BIVM-ERCC5 /// ERCC5 / RFU, ILF3 / Fold change vs veh, ILF3 / RFU 11762660_at / Fold change /veh 11762660_at / RFU VCAN (11757783_s_at) / Fold change /veh VCAN (11757783_s_at) / RFU DDX43 (11728927_at) / Fold change /veh DDX43 (11728927_at) / RFU KRT8 (11758188_x_at) / Fold change /veh KRT8 (11758188_x_at) / RFU NKD1 (11759106_at) / Fold change /veh NKD1 (11759106_at) / RFU SRD5A1 (11742802_a_at) / Fold change /veh SRD5A1 (11742802_a_at) / RFU TPSAB1 /// TPSB2 (11721975_s_at) / Fold change /veh TPSAB1 /// TPSB2 (11721975_s_at) / RFU GSTM3 (11746129_a_at) / Fold change /veh GSTM3 (11746129_a_at) / RFU IL23R (11737362_x_at) / Fold change /veh IL23R (11737362_x_at) / RFU TMEM51 (11727254_a_at) / Fold change /veh TMEM51 (11727254_a_at) / RFU PIWIL2 (11732686_x_at) / Fold change /veh PIWIL2 (11732686_x_at) / RFU ORM1 (11744905_x_at) / Fold change /veh ORM1 (11744905_x_at) / RFU CCDC152 (11743942_at) / Fold change /veh CCDC152 (11743942_at) / RFU ECM1 (11717891_a_at) / Fold change /veh ECM1 (11717891_a_at) / RFU IL23R (11748794_a_at) / Fold change /veh IL23R (11748794_a_at) / RFU TNFAIP8L3 (11732012_x_at) / Fold change /veh TNFAIP8L3 (11732012_x_at) / RFU MBOAT4 (11741988_at) / Fold change /veh MBOAT4 (11741988_at) / RFU 11764193_at / Fold change /veh 11764193_at / RFU TMEM53 (11763286_at) / Fold change /veh TMEM53 (11763286_at) / RFU MAGEB2 (11727129_at) / Fold change /veh MAGEB2 (11727129_at) / RFU TMEM200A (11744735_a_at) / Fold change /veh TMEM200A (11744735_a_at) / RFU CCDC152 (11751479_a_at) / Fold change /veh CCDC152 (11751479_a_at) / RFU FAM211A (11726209_a_at) / Fold change /veh FAM211A (11726209_a_at) / RFU RGS16 (11746705_a_at) / Fold change /veh RGS16 (11746705_a_at) / RFU VCAN (11755009_s_at) / Fold change /veh VCAN (11755009_s_at) / RFU RHOB (11743442_s_at) / Fold change /veh RHOB (11743442_s_at) / RFU RGS16 (11720943_a_at) / Fold change /veh RGS16 (11720943_a_at) / RFU RGS16 (11720944_at) / Fold change /veh RGS16 (11720944_at) / RFU, VPS4B / Fold change vs veh, VPS4B / RFU, CREB1 / Fold change vs veh, CREB1 / RFU, DNAJC13 / Fold change vs veh, DNAJC13 / RFU, GNAQ / Fold change vs veh, GNAQ / RFU, CDK5R1 / Fold change vs veh, CDK5R1 / RFU, ZRANB3 / Fold change vs veh, ZRANB3 / RFU, CUL4A / Fold change vs veh, CUL4A / RFU, CCNY / Fold change vs veh, CCNY / RFU, UFL1 / Fold change vs veh, UFL1 / RFU, COG3 / Fold change vs veh, COG3 / RFU, DIAPH2 / Fold change vs veh, DIAPH2 / RFU, SKA2 / Fold change vs veh, SKA2 / RFU, AFF3 / Fold change vs veh, AFF3 / RFU, LMF1 / Fold change vs veh, LMF1 / RFU, IPO11 / Fold change vs veh, IPO11 / RFU, DFFB / Fold change vs veh, DFFB / RFU, FOXP1 / Fold change vs veh, FOXP1 / RFU, CARD8 / Fold change vs veh, CARD8 / RFU, STRN3 / Fold change vs veh, STRN3 / RFU, ADK / Fold change vs veh, ADK / RFU, RASSF2 / Fold change vs veh, RASSF2 / RFU, WIPF1 / Fold change vs veh, WIPF1 / RFU, LARP1B / Fold change vs veh, LARP1B / RFU, RASA1 / Fold change vs veh, RASA1 / RFU, RB1 / Fold change vs veh, RB1 / RFU, PPFIA1 / Fold change vs veh, PPFIA1 / RFU, MAT2A / Fold change vs veh, MAT2A / RFU, CCT5 / Fold change vs veh, CCT5 / RFU, WDR92 / Fold change vs veh, WDR92 / RFU, CUX1 / Fold change vs veh, CUX1 / RFU, TTC7A / Fold change vs veh, TTC7A / RFU, TMEM135 / Fold change vs veh, TMEM135 / RFU, DEPTOR / Fold change vs veh, DEPTOR / RFU, CPM / Fold change vs veh, CPM / RFU, DNAJB6 / Fold change vs veh, DNAJB6 / RFU, CACNA2D3 / Fold change vs veh, CACNA2D3 / RFU, DTX4 / Fold change vs veh, DTX4 / RFU, TFCP2 / Fold change vs veh, TFCP2 / RFU, GMCL1 /// GMCL1P1 / Fold change vs veh, GMCL1 /// GMCL1P1 / RFU, AEBP2 / Fold change vs veh, AEBP2 / RFU, SNHG1 /// SNORD22 /// SNORD25 /// SNORD26 /// SNORD27 /// SNORD28 /// SNORD29 /// SNORD31 / Fold change vs veh, SNHG1 /// SNORD22 /// SNORD25 /// SNORD26 /// SNORD27 /// SNORD28 /// SNORD29 /// SNORD31 / Fold change (Aza/veh), C12orf56 (ProbeSet 11735607_a_at) / Fold change (ACY-1035/veh), C12orf56 (ProbeSet 11735607_a_at) / Fold change (Aza/veh), FGFR1OP (ProbeSet 11751329_s_at) / Fold change (ACY-1035/veh), FGFR1OP (ProbeSet 11751329_s_at) / Fold change (Aza/veh), VPS36 (ProbeSet 11739960_a_at) / Fold change (ACY-1035/veh), VPS36 (ProbeSet 11739960_a_at) / RFU SYPL1 (11715823_x_at) / Fold change /veh SYPL1 (11715823_x_at) / RFU IGFBP7 (11715501_s_at) / Fold change /veh IGFBP7 (11715501_s_at) / RFU REEP3 (11722064_at) / Fold change /veh REEP3 (11722064_at) / RFU IGLL1 (11728026_x_at) / Fold change /veh IGLL1 (11728026_x_at): dose or concentration left out as unconfirmed
Conditions: ProbeSet 11732165_x_at; LIST D

## Nc1ncn([C@@H]2O[C@H](CO)[C@@H](O)[C@H]2O)c(=O)n1 [azacitidine]
  RFU, LMF1: 50.31 RFU
